Marks after values point to notes of the source that are not given here.
Assays:
Type in all cases: biochemical
[1] = system: LDL isolated from human plasma; experiment: TBARS assay, Cu2+-induced LDL oxidation
Experimental: (§1) To remove the inherent antioxidants, purchased LDL was dialyzed using Fisherbrand cellulose dialysis tubing (type T3 membrane, Thermo Fisher Scientific Inc., Ottawa, ON, Canada) against PBS containing 0.138 M NaCl and 0.0027 M KCl (pH 7.4, at 25° C.) at 4° C. for 24 hours. The buffer was changed every six hours. The dialyzed LDL was immediately used or stored at −80° C. in the dark under nitrogen and used within two to three weeks. Protein content of the dialyzed LDL was measured by the Lowry's method (Lowry et al., J. Biol. Chem., 1951, 193: […]) using bovine serum albumin as the standard.
(§2) Two oxidation induction methods were used: copper sulfate and 2,2′-azobis(2-methylpropionamidine)dihydrochloride (AAPH). For both induction systems, 100 μg/mL of final LDL protein concentration was used. LDL was oxidized at the presence of 10 μM final concentration of Cu^2+and 5 mM final concentration of AAPH separately at 37° C. for 4 h in the dark. […] Oxidation was terminated by adding a 1:1 mixture of 1 mM solution of ethylenediaminetetraacetic acid (EDTA) and 1 mM solution of butylated hydroxytoluene (BHT).
(§3) Two main constituents of TAE and oleanolic acid, which is an isomer of ursolic acid, were also used to investigate the concentration-responsiveness. The same concentrations of Cu^2+ and AAPH were used and the oxidation was terminated by a 1:1 mixture of EDTA and BHT as explained earlier under this section.
(§4) TBARS were measured according to the method of Xu et al., J. Food Sci., 2007, 72: S522-S527 with slight modifications. […] The mixture was incubated at 95° C. for 30 min to develop a pink chromogen. After cooling to room temperature tubes were centrifuged at 1500 g for 15 min and the fluorescence was measured using the FLUOstar OPTIMA plate reader (BMG Labtech Inc. Canada). Excitation and emission wavelengths used were 532 and 590 nm, respectively. TBARS activity was expressed as the percent inhibition (Equation 1) of LDL oxidation with comparison to the positive control, where F is fluorescence:
(§5) Percent inhibition (%)=100(Fpositive control−Fsample)/(Fpositive control) (1)

[2] = system: LDL isolated from human plasma; experiment: TBARS assay, AAPH-induced LDL oxidation
Experimental: as §1, §2, §3, §4, §5

[3] = system: LDL isolated from human plasma; experiment: In vitro LDL oxidation inhibition, statements covering both induction systems or both product types; conditions: for Pro-oxidant effect (statement): 5-50 mg L^−1
Experimental: as §2, §3
TBARS were measured according to the method of Xu et al., J. Food Sci., 2007, 72: S522-S527 with slight modifications. […]. The mixture was incubated at 95° C. for 30 min to develop a pink chromogen. After cooling to room temperature tubes were centrifuged at 1500 g for 15 min and the fluorescence was measured using the FLUOstar OPTIMA plate reader (BMG Labtech Inc. Canada). Excitation and emission wavelengths used were 532 and 590 nm, respectively. TBARS activity was expressed as the percent inhibition (Equation 1) of LDL oxidation with comparison to the positive control, where F is fluorescence:
The formation of hydroperoxides was measured by the lipid compatible formulation of the Peroxoquant™ quantitative peroxide assay kit. LDL oxidation was induced by Cu^2+ or AAPH and incubated for 4 hrs at 37° C. in the dark. Hydroperoxides were measured following the manufacturer's instructions. Absorbance was measured at 595 nm using FLUOstar OPTIMA plate reader (BMG Labtech, Durham, N.C., USA). Activity of hydroperoxides was expressed as the percent inhibition of LDL with comparison to the positive control (Equation 1).

[4] = 50 mg L^−1, comparison of constituent compounds and metabolites (Table 4)

`O=c1c(O[C@@H]2O[C@H](CO)[C@H](O)[C@H](O)[C@H]2O)c(-c2ccc(O)c(O)c2)oc2cc(O)cc(O)c12` [Quercetin-3-O-galactoside] was tested, and the “Percent inhibition of secondary LDL oxidation products, Cu induction” value (shortened to “Percent inhibition … Cu induction”) ([1]; 0.0005 mg L^−1) was 6.39 ± 2.33^c %, the “Percent inhibition … Cu induction” value ([1]; 0.001 mg L^−1) was 4.88 ± 0.76^c % and the “Percent inhibition … Cu induction” value ([1]; 0.005 mg L^−1) was 4.64 ± 1.50^c %. For the same molecule, the “Percent inhibition … Cu induction” value ([1]; 0.01 mg L^−1) was −6.51 ± 2.90^d %, the “Percent inhibition … Cu induction” value ([1]; 0.5 mg L^−1) was 6.20 ± 1.77^c % and the “Percent inhibition … Cu induction” value ([1]; 1 mg L^−1) was 27.61 ± 0.58^b %. The “Percent inhibition … Cu induction” value ([1]; 5 mg L^−1) was 87.87 ± 0.32^a %, the “Percent inhibition … Cu induction” value ([1]; 10 mg L^−1) was 89.88 ± 0.50^a % and the “Percent inhibition … Cu induction” value ([1]; 25 mg L^−1) was 91.49 ± 0.88^a %. The “Percent inhibition … Cu induction” value ([1]; 50 mg L^−1) was 92.73 ± 0.56^a %, the “Percent inhibition … Cu induction” value [1, 4] was 105.34 ± 0.30^ab % and the “Percent inhibition of secondary LDL oxidation products, AAPH induction” value (“Percent inhibition … AAPH induction” for short) ([2]; 0.0005 mg L^−1) was −29.51 ± 2.43^c %. For the same molecule, the “Percent inhibition … AAPH induction” value ([2]; 0.001 mg L^−1) was −64.01 ± 6.16^c %, the “Percent inhibition … AAPH induction” value ([2]; 0.005 mg L^−1) was −35.63 ± 5.21^c % and the “Percent inhibition … AAPH induction” value ([2]; 0.01 mg L^−1) was −34.82 ± 4.98^c %. The “Percent inhibition … AAPH induction” value ([2]; 0.5 mg L^−1) was 37.82 ± 7.30^b %, the “Percent inhibition … AAPH induction” value ([2]; 1 mg L^−1) was 49.08 ± 3.10^b % and the “Percent inhibition … AAPH induction” value ([2]; 5 mg L^−1) was 88.62 ± 2.58^a %. The “Percent inhibition … AAPH induction” value ([2]; 10 mg L^−1) was 86.65 ± 1.82^a %, the “Percent inhibition … AAPH induction” value ([2]; 25 mg L^−1) was 85.58 ± 2.24^a % and the “Percent inhibition … AAPH induction” value ([2]; 50 mg L^−1) was 92.23 ± 1.87^a %. The “Percent inhibition … AAPH induction” value [2, 4] was 141.68 ± 1.43^a %, the “Pro-oxidant effect (statement)” value [3] was “did not show any pro-oxidant effect” and the “LDL oxidation inhibition for both the induction systems” value ([3]; concentrations greater than 5 mg L^−1) was “more than 85%”.

In the case of `O=c1c(O)c(-c2ccc(O)c(O)c2)oc2cc(O)cc(O)c12` [Quercetin], the “Percent inhibition … Cu induction” value ([1]; 0.0005 mg L^−1) is reported as 13.97 ± 2.56^d %, the “Percent inhibition … Cu induction” value ([1]; 0.005 mg L^−1) is reported as 8.07 ± 3.33^de % and the “Percent inhibition … Cu induction” value ([1]; 0.01 mg L^−1) is reported as 4.62 ± 1.03^e %. The “Percent inhibition … Cu induction” value ([1]; 0.5 mg L^−1) was 75.68 ± 1.31^c %, the “Percent inhibition … Cu induction” value ([1]; 1 mg L^−1) was 85.87 ± 1.55^b % and the “Protection for Cu2+ induced LDL oxidation” value ([1]; beyond 1 mg L^−1) was “more than 80%”. For the same molecule, the “Percent inhibition … AAPH induction” value ([2]; 0.0005 mg L^−1) was 13.41 ± 0.67^e %, the “Percent inhibition … AAPH induction” value ([2]; 0.001 mg L^−1) was 28.18 ± 2.19^d % and the “Percent inhibition … AAPH induction” value ([2]; 0.005 mg L^−1) was 23.17 ± 1.48^d %. The “Percent inhibition … AAPH induction” value ([2]; 0.01 mg L^−1) was 16.71 ± 1.18^e %, the “Percent inhibition … AAPH induction” value ([2]; 0.5 mg L^−1) was 46.78 ± 0.85^c % and the “Percent inhibition … AAPH induction” value ([2]; 1 mg L^−1) was 66.41 ± 0.83^b %. For the same molecule, the “Percent inhibition … AAPH induction” value ([2]; 5 mg L^−1) was 86.62 ± 2.00^a %, the “Percent inhibition … AAPH induction” value ([2]; 10 mg L^−1) was 90.20 ± 0.63^a % and the “Percent inhibition … AAPH induction” value ([2]; 25 mg L^−1) was 92.04 ± 0.51^a %. For the same molecule, the “Percent inhibition … AAPH induction” value ([2]; 50 mg L^−1) was 91.90 ± 0.69^a %, the “Percent inhibition … AAPH induction” value [2, 4] was 85.06 ± 1.23^c % and the “Protection for AAPH induced LDL oxidation” value ([2]; beyond 5 mg L^−1) was “more than 80%”. The “Pro-oxidant effect (statement)” value [3] was “did not show any pro-oxidant effect”.

Source: patent publication US20130165396A1, “Apple Skin Extracts for Treating Cardiovascular Disease” (NATIONAL RESEARCH COUNCIL OF CANADA, priority 2010, published 2013)
